Measurements as given in PubChem BioAssay AID248 (DTP/NCI, 2004).
Several values for one entry are separate records, joined by “and”; a condition that tells them apart may be missing. Identical values can stand only once. Toxic doses and inconclusive results are not listed. No stated cut-off is given here; in the data, active means T/C of 150% or more; inactive means T/C below 125%.

Test system: L1210 leukemia ip in BDF1 mice, survival T/C
Experiment: NCI In Vivo Anticancer Drug Screen. Data for tumor model L1210 Leukemia (intraperitoneal) in B6D2F1 (BDF1) mice
Conditions: endpoint: mean survival time, higher = longer survival
Outline: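 Ratio derived from survival: compound-dosed mice over vehicle-dosed mice, all bearing a transplantable tumor.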

[1] = dose: 100.0 mg/kg/injection, schedule: Q01DX009 (ip), vehicle: saline with Tween-80

Measured: T/C

Cc1ccc(S(=O)(=O)NNC(=O)c2cc(C)c(C)cc2NCC(O)C(O)C(O)CO)cc1 (configuration not stated)
inactive: dose: 100.0 mg/kg/injection, schedule: Q01DX001 (ip), vehicle: carboxymethylcellulose (CMC) 93 % of control | dose: 200.0 mg/kg/injection, schedule: Q01DX001 (ip), vehicle: carboxymethylcellulose (CMC) 98 % of control | dose: 400.0 mg/kg/injection, schedule: Q01DX001 (ip), vehicle: carboxymethylcellulose (CMC) 89 % of control

CC(C)(O)/C=C/C(=O)[C@](C)(O)[C@H]1[C@H](O)C[C@@]2(C)[C@@H]3CC=C4[C@@H](C=C(O)C(=O)C4(C)C)[C@]3(C)C(=O)C[C@]12C
inactive: dose: 100.0 micrograms/kg/injection, schedule: Q01DX001 (sc), vehicle: steriod suspending solution 104 % of control | dose: 200.0 micrograms/kg/injection, schedule: Q01DX001 (sc), vehicle: steriod suspending solution 102 % of control | dose: 400.0 micrograms/kg/injection, schedule: Q01DX001 (sc), vehicle: steriod suspending solution 104 % of control | dose: 800.0 micrograms/kg/injection, schedule: Q01DX001 (sc), vehicle: steriod suspending solution 96 % of control

CC(=O)CC(=O)Nc1ccc([N+](=O)[O-])cc1
inactive: [1] 97 % of control | dose: 100.0 mg/kg/injection, schedule: Q04DX003 (ip), vehicle: saline 96 % of control | dose: 200.0 mg/kg/injection, schedule: Q01DX009 (ip), vehicle: saline with Tween-80 111 % of control | dose: 200.0 mg/kg/injection, schedule: Q04DX003 (ip), vehicle: saline 96 % of control | dose: 400.0 mg/kg/injection, schedule: Q01DX009 (ip), vehicle: saline with Tween-80 102 % of control | dose: 400.0 mg/kg/injection, schedule: Q04DX003 (ip), vehicle: saline 92 % of control

Cc1ccc(S(=O)(=O)/C=C(\I)c2ccc([N+](=O)[O-])cc2)cc1
inactive: dose: 25.0 mg/kg/injection, schedule: Q01DX009 (ip), vehicle: saline with Tween-80 96 % of control | dose: 50.0 mg/kg/injection, schedule: Q01DX009 (ip), vehicle: saline with Tween-80 91 % of control | dose: 100.0 mg/kg/injection, schedule: Q01DX001 (ip), vehicle: saline 97 % of control | [1] 98 % of control | dose: 200.0 mg/kg/injection, schedule: Q01DX001 (ip), vehicle: saline 95 % of control

CN=C(NC)c1ccc(NC(=O)c2cc(Cl)cc(C(=O)Nc3ccc(C(=NC)NC)cc3)c2)cc1
inactive: dose: 1.88 mg/kg/injection, schedule: Q01DX Z (ip), vehicle: saline 88 % of control | dose: 3.75 mg/kg/injection, schedule: Q01DX Z (ip), vehicle: saline 94 % of control | dose: 7.5 mg/kg/injection, schedule: Q01DX Z (ip), vehicle: saline 93 % of control | dose: 15.0 mg/kg/injection, schedule: Q01DX Z (ip), vehicle: saline 104 % of control and 115 % of control
